Assay results as given in US20220257491A1, “Prebiotic Oral Care Compositions and Methods” (Colgate-Palmolive Company, priority 2021, published 2022).
Marks after values point to notes of the source that are not given here.

Assays:
Type in all cases: cell-based
[1] = test system: human oral keratinocytes (HOK-18A); assay: IL-8 levels in supernatants of keratinocyte cultures exposed to substrate-treated biofilms; conditions: mean±SD n=3
Procedure: (§1) Cultures of immortalized human oral keratinocytes (HOK-18A) are grown. The relative inflammatory potential of the substrate-treated multi-species biofilms is evaluated by analyzing the expression of five inflammatory mediator genes in human oral keratinocytes (HOKs) exposed to the substrate-treated biofilms. […] The IL-8 levels in the cellular supernatant are determined as well. RNA is converted to cDNA and relative expression of inflammatory mediator genes is determined as described above with respect to the cellular housekeeping gene (3-actin.
(§2) Table 7: IL-8 levels detected in the supernatants of human oral keratinocytes (HOK-18A) cultures exposed to substrate-treated multi-species biofilms are shown as mean±SD (n=3) values (pg/mL). All substrates are dissolved in PBS at a concentration of 1 M (upper part) or 1% (w/v) (lower part). Values between 0 and 1 represent relative downregulation, values >1 represent relative upregulation. […] For such values, statistically significant differences between two experimental conditions are marked with ‘#1’ (vs. NADM), ‘#2’ (vs. NADG), ‘#3’ (vs. D-(+)-mannose) (P<0.05).

multi-species biofilms = assay: Multi-species biofilm organic acid balances (supernatant); conditions: >0 production, <0 consumption, mean±SD n=3
Procedure: (§3) Biofilms are grown vertically on Calcium Deficient Hydroxyapatite (CAD-HA) disks (Hitemco Medical, Old Bethpage, USA) using the Amsterdam Active Adhesion model. Biofilms are allowed to establish during 24 h (37° C., 170 rpm) under micro-aerophilic conditions (6% O2, 7% CO2, 7% H2, 80% N2). After this 24 h, disks are rinsed 3 times a day for 3 minutes (RT, 250 rpm), for 3 consecutive days, by transferring the lid containing the disks to a new 24-well plate containing 2 mL/well of the appropriate substrate solution. As a negative control, PBS (pH 5.7) without substrate supplementation is used. After each rinsing step, disks are shortly dip-rinsed in a new 24-well plate containing fresh modified BHI medium (2 mL/well) to remove remaining substrate traces. Subsequently, the lid is transferred to another 24-well plate containing fresh modified BHI medium (2 mL/well), followed by incubation (micro-aerophilic, 37° C., 170 rpm) until the next rinsing step.
To examine the effect of NADM and the influence of the orientation and absence/presence of the N-acetyl group on organic acid production and consumption, supernatant samples from substrate-treated or untreated multi-species biofilms are analysed. […] When comparing relevant significant differences between substrate conditions, an increase in acetate production is observed for NADM compared to D-(+)-mannose (3084±174 vs. 1934±56 mg/L).

[2] = test system: human oral keratinocytes (HOK-18A); assay: Inflammatory mediator gene expression in keratinocytes exposed to substrate-treated biofilms; conditions: for Fold change in inflammatory mediator gene expression: IL-1β / Fold change in inflammatory mediator gene expression: IL-6 / Fold change in inflammatory mediator gene expression: IL-8 / Fold change in inflammatory mediator gene expression: MMP-8 / Fold change in inflammatory mediator gene expression: TNF-α: relative to control (=1), geometric mean (95% C.I.) n=3
Procedure: as §1
In HOKs exposed to substrate-treated (substrate concentrations of 1 M) multi-species biofilms, mostly decreases in inflammatory mediator gene expression are observed and measured via SYBR RT-qPCR, the results of which are detailed in Table 6.
as §2, with “All” for “Table 7: IL-8 levels detected in the supernatants of human oral keratinocytes (HOK-18A) cultures exposed to substrate-treated multi-species biofilms are shown as mean±SD (n=3) values (pg/mL). All”

S. sanguinis = assay: Multi-species biofilm composition: absolute abundance of S. sanguinis; conditions: mean±SD n=3
Procedure: as §3
(§4) NADM, N-acetyl-D-glucosamine (“NADG”) and D-(+)-mannose are selected to determine their effects on multi-species biofilm composition. […] decrease in absolute numbers in at least four of the pathogenic bacterial species tested in the assay, compared to the control, the results of which are described in Table 1 below. Absolute abundances of bacterial species are shown as mean±SD (n=3) logarithmic values of the genome equivalents per millilitre (log(Geq/mL)).

[3] = test system: A. actinomycetemcomitans virulence genes; assay: Multi-species biofilm virulence gene expression, SYBR RT-qPCR: A. actinomycetemcomitans; conditions: for Fold Change in virulence gene expression: aae / Fold Change in virulence gene expression: apaH / Fold Change in virulence gene expression: cdtB / Fold Change in virulence gene expression: emaA / Fold Change in virulence gene expression: flp / Fold Change in virulence gene expression: ltxA / Fold Change in virulence gene expression: omp29 / Fold Change in virulence gene expression: omp100 / Fold Change in virulence gene expression: orf859 / Fold Change in virulence gene expression: pgA / Fold Change in virulence gene expression: vapA / Fold Change in virulence gene expression: vppA: relative to control (=1), 2^-ΔΔCt, geometric mean n=3
Procedure: as §3
The expression of 33 virulence genes from 4 periodontal pathogens is analysed to evaluate the relative virulence of the substrate-treated biofilms. For all three substrates, virulence gene expression is determined relatively to the control, and these values are also compared between substrates when this is relevant (Tables 5a-5d).

P. gingivalis = assay: Multi-species biofilm composition: absolute abundance of P. gingivalis; conditions: for Absolute abundance Pg (P. gingivalis): mean±SD n=3
Procedure: as §3, §4

S. gordonii = assay: Multi-species biofilm composition: absolute abundance of S. gordonii; conditions: mean±SD n=3
Procedure: as §3
NADM, N-acetyl-D-glucosamine (“NADG”) and D-(+)-mannose are selected to determine their effects on multi-species biofilm composition. Repeated rinsing of the biofilms with the substrates at a concentration of 1M results in a significant decrease in absolute numbers in at least four of the pathogenic bacterial species tested in the assay, compared to the control, the results of which are described in Table 1 below. Absolute abundances of bacterial species are shown as mean±SD (n=3) logarithmic values of the genome equivalents per millilitre (log(Geq/mL)).

[4] = biofilm rinsed with substrate 1M
[5] = substrate 1 M, listed as D-(+)-mannose
[6] = biofilm rinsed with substrate 1%

O=C[C@@H](O)[C@@H](O)[C@H](O)[C@H](O)CO [D-mannose, D-(+)-mannose]
IL-8 levels in supernatants of HOK-18A cultures ([1]; biofilm rinsed with substrate 1%(w/v)): 51.09 ± 13.89 pg/mL
IL-8 levels in supernatants of HOK-18A cultures [1, 4]: 0.06 ± 0.04 pg/mL
acetate level in biofilm supernatant (multi-species biofilms; substrate 1%(w/v)): 352 ± 24 mg/L
butyrate level in biofilm supernatant (multi-species biofilms; substrate 1%(w/v)): 1985 ± 37 mg/L
formate level in biofilm supernatant (multi-species biofilms; substrate 1%(w/v)): 3717 ± 114 mg/L
lactate level in biofilm supernatant (multi-species biofilms; substrate 1%(w/v)): 125 ± 0 mg/L
propionate level in biofilm supernatant (multi-species biofilms; substrate 1%(w/v)): 1962 ± 28 mg/L
acetate level in biofilm supernatant (multi-species biofilms; substrate 1 M): 1934 ± 56*^, #1 mg/L
butyrate level in biofilm supernatant (multi-species biofilms; substrate 1 M): 86 ± 15*^, #1, 2 mg/L
formate level in biofilm supernatant (multi-species biofilms; substrate 1 M): 398 ± 12 mg/L
lactate level in biofilm supernatant (multi-species biofilms; substrate 1 M): 125 ± 0 mg/L
propionate level in biofilm supernatant (multi-species biofilms; substrate 1 M): 2821 ± 127 mg/L
acetate level in biofilm supernatant (multi-species biofilms; [5]): 1934 ± 56 mg/L
butyrate level in biofilm supernatant (multi-species biofilms; [5]): 85 ± 15 mg/L
propionate level in biofilm supernatant (multi-species biofilms; [5]): 2821 ± 127 mg/L
Fold change in inflammatory mediator gene expression: IL-1β [2, 6]: 0.79 (0.43-1.48) fold
Fold change in inflammatory mediator gene expression: IL-6 [2, 6]: 0.79 (0.60-1.06) fold
Fold change in inflammatory mediator gene expression: IL-8 [2, 6]: 1.22 (0.79-1.86) fold
Fold change in inflammatory mediator gene expression: MMP-8 [2, 6]: 0.40 (0.27-0.58)* fold
Fold change in inflammatory mediator gene expression: TNF-α [2, 6]: 0.770.48-1.23) fold
Fold change in inflammatory mediator gene expression: IL-1β [2, 4]: 0.81 (0.59-1.12) fold
Fold change in inflammatory mediator gene expression: IL-6 [2, 4]: 0.63 (0.41-0.97) fold
Fold change in inflammatory mediator gene expression: IL-8 [2, 4]: 0.12 (0.06-0.27)* fold
Fold change in inflammatory mediator gene expression: MMP-8 [2, 4]: 1.25 (1.10-1.42) fold
Fold change in inflammatory mediator gene expression: TNF-α [2, 4]: 0.77 (0.37-1.60) fold
Decreased MMP-8 gene expression ([2]; substrate 1%(w/v)): 2.5 fold
Absolute abundance S. sang. (S. sanguinis) (S. sanguinis; substrate 1%(w/v) in PBS): 8.19 ± 0.11 log(Geq/mL)
Absolute abundance S. sang. (S. sanguinis) (S. sanguinis; substrate 1 M in PBS): 7.39 ± 0.89 log(Geq/mL)
Fold Change in virulence gene expression: aae ([3]; substrate 1% (w/v)): 1.06 fold
Fold Change in virulence gene expression: apaH ([3]; substrate 1% (w/v)): 0.72 fold
Fold Change in virulence gene expression: cdtB ([3]; substrate 1% (w/v)): 0.36 fold
Fold Change in virulence gene expression: emaA ([3]; substrate 1% (w/v)): 0.41 fold
Fold Change in virulence gene expression: flp ([3]; substrate 1% (w/v)): 1.26 fold
Fold Change in virulence gene expression: ltxA ([3]; substrate 1% (w/v)): 0.17 fold
Fold Change in virulence gene expression: omp29 ([3]; substrate 1% (w/v)): 0.65 fold
Fold Change in virulence gene expression: omp100 ([3]; substrate 1% (w/v)): 0.34 fold
Fold Change in virulence gene expression: orf859 ([3]; substrate 1% (w/v)): 1.46 fold
Fold Change in virulence gene expression: pgA ([3]; substrate 1% (w/v)): 0.55 fold
Fold Change in virulence gene expression: vapA ([3]; substrate 1% (w/v)): 0.39 fold
Fold Change in virulence gene expression: vppA ([3]; substrate 1% (w/v)): 0.53 fold
A. actinomycetemcomitans gene expression decrease: cdtB, emaA, ltxA, omp100 and vapA ([3]; substrate 1%(w/v)): 2.4- to 5.9 fold
Fold Change in virulence gene expression: aae ([3]; substrate 1M): 0.16 fold
Fold Change in virulence gene expression: apaH ([3]; substrate 1M): 0.12 fold
Fold Change in virulence gene expression: cdtB ([3]; substrate 1M): 0.13 fold
Fold Change in virulence gene expression: emaA ([3]; substrate 1M): 0.12 fold
Fold Change in virulence gene expression: flp ([3]; substrate 1M): 1.57 fold
Fold Change in virulence gene expression: ltxA ([3]; substrate 1M): 0.02 fold
Fold Change in virulence gene expression: omp29 ([3]; substrate 1M): 0.27 fold
Fold Change in virulence gene expression: omp100 ([3]; substrate 1M): 0.26 fold
Fold Change in virulence gene expression: orf859 ([3]; substrate 1M): 0.03 fold
Fold Change in virulence gene expression: pgA ([3]; substrate 1M): 5.70 fold
Fold Change in virulence gene expression: vapA ([3]; substrate 1M): 0.62 fold
Fold Change in virulence gene expression: vppA ([3]; substrate 1M): 0.58 fold
Absolute abundance Pg (P. gingivalis) (P. gingivalis; substrate 1%(w/v) in PBS): 7.08 ± 0.17 log(Geq/mL)
Difference in P. gingivalis amounts compared to NADG (P. gingivalis; substrate 1 M): −1.25 log(Geq/mL)
Absolute abundance Pg (P. gingivalis) (P. gingivalis; substrate 1 M in PBS): 2.75 ± 0.08*^, #2 log(Geq/mL)
Absolute abundance S. gord. (S. gordonii) (S. gordonii; substrate 1%(w/v) in PBS): 8.29 ± 0.11 log(Geq/mL)
Absolute abundance S. gord. (S. gordonii) (S. gordonii; substrate 1 M in PBS): 9.19 ± 0.39 log(Geq/mL)
